Experimental data reported in patent US20220128542A1, “TREATMENT EFFICIENCY EVALUATION” (TX MEDIC AB, priority 2019, published 2022).
Read-outs that look alike come from different tables or passages of the source.

Tested on: brain of rats subjected to severe traumatic brain injury (sTBI)
[1] = 1 mg/kg, 2 days post-TBI, of 221 genes
[2] = 1 mg/kg, 7 days post-TBI, of 2741 genes
[3] = 5 mg/kg, 2 days post-TBI, of 221 genes
[4] = 5 mg/kg, 7 days post-TBI, of 2741 genes
[5] = 15 mg/kg, 2 days post-TBI, of 221 genes
[6] = 15 mg/kg, 7 days post-TBI, of 2741 genes
[7] = 3 repeated doses of 15 mg/kg, 7 days post-TBI, of 2741 genes
[8] = DS 1 mg/kg, day 7 following TBI, relative to TBI model
[9] = DS 5 mg/kg, day 7 following TBI, relative to TBI model
[10] = DS 15 mg/kg, day 7 following TBI, relative to TBI model

Protocol: As a starting point, a list and expression levels of molecules differentially regulated by dextran sulfate relative to a TBI model for the three different doses (1 mg/kg, 5 mg/kg and 15 mg/kg) of dextran sulfate at day 7 following TBI were established.
Male Wistar rats of 300-350 g body weight were fed with standard laboratory diet and water ad libitum in a controlled environment. As the anesthetic mixture, the animals received 35 mg/kg b.w. ketamine and 0.25 mg/kg body weight midazolam by i.p. injection. Severe traumatic brain injury (sTBI) was induced by dropping a 450 g weight from 2 m height on to the rat head that had been protected by a metal disk previously fixed on the skull, according to the “weight drop” impact acceleration model (Marmarou et al., J Neurosurg. 1994; 80: 291-300). […] At the end of each period of treatment, rats were anesthetized again and then immediately sacrificed.
LMW-DS (Tikomed AB) was provided at a stock concentration of 20 mg/ml and was kept in a temperature-monitored refrigerator at 4° C. LMW-DS aliquots were diluted to the appropriate dosing concentration in sterile saline prior to delivery of a single subcutaneous injection.
Three doses of LMW-DS were administered subcutaneously 30 minutes post-TBI. The animals were sacrificed at 2 days post-TBI. The animals were divided into the following subgroups:
Three doses of LMW-DS were administered subcutaneously 30 minutes post-TBI. The animals were sacrificed at 7 days post-TBI. The animals were divided into the following subgroups:
An in vivo craniectomy was performed on all animals during anesthesia. After carefully removing the rat's skull, the brain was exposed and removed with a surgical spatula and quickly dropped in RNALater and preserved at 4° C. for further processing.
The arrays used were the Agilent Rat expression arrays.
Statistical analysis was performed to quantitate the effect of sTBI on the brain in this model. The follow-on analyses looked at the effects of LMW-DS in this model using different iterations and algorithms. Statistical analysis was carried out using the Metaboanalyst software package. Gene expression changes of 10% with a p<0.05 were regarded as significant.

sodium salt of dextran sulfate [LMW-DS]
genes with altered TBI-specific expression (1 mg/kg within 30 min after injury, 2 days of sTBI): 372 genes
genes with altered TBI-specific expression (1 mg/kg within 30 min after injury, 7 days of sTBI): 3602 genes
genes differing from healthy controls (1 mg/kg, 2 days after sTBI): 209 genes
TBI-deregulated genes remaining deregulated relative to healthy controls [1]: 22 genes
share of TBI-deregulated genes remaining deregulated [1]: 10%
genes differing from healthy controls (1 mg/kg, 7 days after sTBI): 282 genes
TBI-deregulated genes remaining deregulated relative to healthy controls [2]: 124 genes
share of TBI-deregulated genes remaining deregulated [2]: 4.5%
genes with altered TBI-specific expression (5 mg/kg within 30 min after TBI, 2 days of sTBI): 702 genes
genes with altered TBI-specific expression (5 mg/kg within 30 min after TBI, 7 days of sTBI): 3852 genes
genes differing from healthy controls (5 mg/kg, 2 days after sTBI): 258 genes
TBI-deregulated genes remaining deregulated relative to healthy controls [3]: 51 genes
share of TBI-deregulated genes remaining deregulated [3]: 23%
genes differing from healthy controls (5 mg/kg, 7 days after sTBI): 398 genes
TBI-deregulated genes remaining deregulated relative to healthy controls [4]: 169 genes
share of TBI-deregulated genes remaining deregulated [4]: 6.1%
genes with altered TBI-specific expression (15 mg/kg within 30 min after TBI, 2 days of sTBI): 247 genes
genes with altered TBI-specific expression (15 mg/kg within 30 min after TBI, 7 days of sTBI): 3901 genes
genes differing from healthy controls (15 mg/kg, 2 days after sTBI): 47 genes
TBI-deregulated genes remaining deregulated relative to healthy controls [5]: 19 genes
share of TBI-deregulated genes remaining deregulated [5]: 8.5%
genes differing from healthy controls (15 mg/kg, 7 days after sTBI): 158 genes
TBI-deregulated genes remaining deregulated relative to healthy controls [6]: 85 genes
share of TBI-deregulated genes remaining deregulated [6]: 3.1%
genes differing from healthy controls (3 repeated doses of 15 mg/kg, 7 days after sTBI): 234 genes
TBI-deregulated genes remaining deregulated relative to healthy controls [7]: 116 genes
share of TBI-deregulated genes remaining deregulated [7]: 4.25%
AFP fold change (FC) [8]: −1.439
ATP2A3 fold change (FC) [8]: −1.284
ATP8A1 fold change (FC) [8]: 1.280
BDNF fold change (FC) [8]: 1.635
CRH fold change (FC) [8]: 1.253
FGF1 fold change (FC) [8]: −1.366
HBEGF fold change (FC) [8]: 1.235
IL-17B fold change (FC) [8]: 1.863
KITLG fold change (FC) [8]: −1.251
LDLR fold change (FC) [8]: 1.364
NOG fold change (FC) [8]: 1.304
PF4 fold change (FC) [8]: −1.453
SLC1A4 fold change (FC) [8]: 1.498
SLC7A11 fold change (FC) [8]: 1.490
SLC16A7 fold change (FC) [8]: 1.493
SLC29A1 fold change (FC) [8]: −1.370
SLC40A1 fold change (FC) [8]: −1.345
TNFSF15 fold change (FC) [8]: 3.878
TSLP fold change (FC) [8]: 1.389
TTR fold change (FC) [8]: −2.531
VAV3 fold change (FC) [8]: −1.505
AFP fold change (FC) [9]: −1.280
ATP2A3 fold change (FC) [9]: −1.205
ATP8A1 fold change (FC) [9]: 1.223
BDNF fold change (FC) [9]: 1.708
CRH fold change (FC) [9]: 1.316
FGF1 fold change (FC) [9]: −1.382
HBEGF fold change (FC) [9]: 1.274
IL-17B fold change (FC) [9]: 1.765
KITLG fold change (FC) [9]: −1.274
LDLR fold change (FC) [9]: 1.291
NOG fold change (FC) [9]: 1.305
PF4 fold change (FC) [9]: −1.331
SLC1A4 fold change (FC) [9]: 1.531
SLC4A1 fold change (FC) [9]: −1.442
SLC7A11 fold change (FC) [9]: 1.469
SLC16A7 fold change (FC) [9]: 1.441
SLC29A1 fold change (FC) [9]: −1.377
SLC40A1 fold change (FC) [9]: −1.338
TNFSF15 fold change (FC) [9]: 4.302
TSLP fold change (FC) [9]: 1.446
TTR fold change (FC) [9]: −1.915
VAV3 fold change (FC) [9]: −1.418
AFP fold change (FC) [10]: −1.208
ATP2A3 fold change (FC) [10]: −1.216
ATP8A1 fold change (FC) [10]: 1.212
BDNF fold change (FC) [10]: 1.557
CRH fold change (FC) [10]: 1.293
FGF1 fold change (FC) [10]: −1.213
GOSR1 fold change (FC) [10]: 1.233
HBEGF fold change (FC) [10]: 1.250
IL36RN fold change (FC) [10]: 1.284
IL-17B fold change (FC) [10]: 1.729
KITLG fold change (FC) [10]: −1.261
LDLR fold change (FC) [10]: 1.212
NOG fold change (FC) [10]: 1.281
PF4 fold change (FC) [10]: −1.244
SLC1A4 fold change (FC) [10]: 1.518
SLC4A1 fold change (FC) [10]: −1.213
SLC7A11 fold change (FC) [10]: 1.477
SLC16A7 fold change (FC) [10]: 1.408
SLC29A1 fold change (FC) [10]: −1.316
SLC40A1 fold change (FC) [10]: −1.348
TNFSF15 fold change (FC) [10]: 3.939
TSLP fold change (FC) [10]: 1.322
TTR fold change (FC) [10]: −2.179
VAV3 fold change (FC) [10]: −1.318
